Source: PMC6757289, “Design and Characterization of SGK3-PROTAC1, an Isoform Specific SGK3 Kinase PROTAC Degrader” (ACS Chemical Biology, 2019)
Read-outs that look alike come from different tables or passages of the source.

Tests used:
Test in all cases: kinase profiling panel
Assay type in all cases: biochemical
Conditions in all cases: read-out: % Activity Remaining
DAPK1 = DAPK1 (Homo sapiens, UniProt P53355)
From the text: (§1) Protein kinase profiling against a Dundee panel of 140 protein kinases was undertaken at the International Centre for Protein Kinase Profiling. The result for each kinase was presented as a mean kinase activity of the reaction taken in triplicate relative to a control sample treated with DMSO. Assay conditions and abbreviations are available at http://www.kinase-screen.mrc.ac.uk.

EF2K = EF2K (Homo sapiens, UniProt O00418)
From the text: as §1

EPH-B2 = target: T1, EPH-B2 (Homo sapiens, UniProt P29323)
T1 sequence (P29323 19-1055): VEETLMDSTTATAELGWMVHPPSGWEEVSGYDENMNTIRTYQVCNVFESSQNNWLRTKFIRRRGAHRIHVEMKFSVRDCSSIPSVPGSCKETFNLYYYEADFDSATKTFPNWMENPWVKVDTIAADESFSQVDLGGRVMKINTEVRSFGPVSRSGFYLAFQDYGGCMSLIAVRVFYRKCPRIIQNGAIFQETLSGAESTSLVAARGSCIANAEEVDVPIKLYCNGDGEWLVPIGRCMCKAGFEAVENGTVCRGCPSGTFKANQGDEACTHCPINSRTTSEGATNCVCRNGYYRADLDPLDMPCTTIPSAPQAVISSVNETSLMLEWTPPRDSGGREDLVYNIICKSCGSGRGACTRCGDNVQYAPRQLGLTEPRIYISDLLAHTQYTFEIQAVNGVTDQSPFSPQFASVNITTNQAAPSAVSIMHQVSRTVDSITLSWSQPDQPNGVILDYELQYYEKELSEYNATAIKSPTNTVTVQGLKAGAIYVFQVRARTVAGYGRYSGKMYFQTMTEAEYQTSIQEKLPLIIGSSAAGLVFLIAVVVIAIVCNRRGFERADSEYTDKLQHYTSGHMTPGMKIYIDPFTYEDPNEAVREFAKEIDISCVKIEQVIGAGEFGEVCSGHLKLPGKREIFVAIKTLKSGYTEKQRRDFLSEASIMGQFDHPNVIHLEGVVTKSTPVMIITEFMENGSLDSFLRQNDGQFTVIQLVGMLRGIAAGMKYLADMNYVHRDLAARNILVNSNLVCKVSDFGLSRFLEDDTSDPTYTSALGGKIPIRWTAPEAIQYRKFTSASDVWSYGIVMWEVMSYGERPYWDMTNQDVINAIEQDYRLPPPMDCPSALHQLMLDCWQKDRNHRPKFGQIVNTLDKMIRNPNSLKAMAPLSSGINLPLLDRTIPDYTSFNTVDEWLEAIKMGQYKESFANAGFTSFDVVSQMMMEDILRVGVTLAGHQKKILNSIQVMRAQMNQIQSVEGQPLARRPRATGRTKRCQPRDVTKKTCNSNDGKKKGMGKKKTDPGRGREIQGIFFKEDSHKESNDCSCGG
From the text: as §1

ERK2 = ERK2 (Homo sapiens, UniProt P28482)
From the text: as §1

HIPK2 = HIPK2 (Homo sapiens, UniProt Q9H2X6)
From the text: as §1

MLK1 = MLK1 (Homo sapiens, UniProt P80192)
From the text: as §1

PDK1 = target: T2, PDK1 (Homo sapiens, UniProt O15530)
T2 sequence (O15530 1-556): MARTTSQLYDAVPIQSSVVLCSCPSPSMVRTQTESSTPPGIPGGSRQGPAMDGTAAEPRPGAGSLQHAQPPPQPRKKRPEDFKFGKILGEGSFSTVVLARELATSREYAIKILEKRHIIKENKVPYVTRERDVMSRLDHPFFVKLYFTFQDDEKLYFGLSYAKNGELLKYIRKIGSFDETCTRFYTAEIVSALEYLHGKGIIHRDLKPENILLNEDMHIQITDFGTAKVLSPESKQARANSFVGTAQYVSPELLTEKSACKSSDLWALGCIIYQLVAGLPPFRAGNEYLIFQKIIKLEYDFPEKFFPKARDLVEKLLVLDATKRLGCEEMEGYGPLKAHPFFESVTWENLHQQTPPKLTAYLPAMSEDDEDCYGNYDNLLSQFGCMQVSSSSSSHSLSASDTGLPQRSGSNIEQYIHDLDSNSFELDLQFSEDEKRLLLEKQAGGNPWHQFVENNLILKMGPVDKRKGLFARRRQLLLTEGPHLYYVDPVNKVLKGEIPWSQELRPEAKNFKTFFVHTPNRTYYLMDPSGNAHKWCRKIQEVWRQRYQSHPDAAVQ
From the text: as §1

RSK2 = RSK2 (Homo sapiens, UniProt P51812)
From the text: as §1

p38 alpha MAPK = p38 alpha MAPK (Homo sapiens, UniProt Q16539)
From the text: as §1

Chain of DAPK1 (P53355 whole entry): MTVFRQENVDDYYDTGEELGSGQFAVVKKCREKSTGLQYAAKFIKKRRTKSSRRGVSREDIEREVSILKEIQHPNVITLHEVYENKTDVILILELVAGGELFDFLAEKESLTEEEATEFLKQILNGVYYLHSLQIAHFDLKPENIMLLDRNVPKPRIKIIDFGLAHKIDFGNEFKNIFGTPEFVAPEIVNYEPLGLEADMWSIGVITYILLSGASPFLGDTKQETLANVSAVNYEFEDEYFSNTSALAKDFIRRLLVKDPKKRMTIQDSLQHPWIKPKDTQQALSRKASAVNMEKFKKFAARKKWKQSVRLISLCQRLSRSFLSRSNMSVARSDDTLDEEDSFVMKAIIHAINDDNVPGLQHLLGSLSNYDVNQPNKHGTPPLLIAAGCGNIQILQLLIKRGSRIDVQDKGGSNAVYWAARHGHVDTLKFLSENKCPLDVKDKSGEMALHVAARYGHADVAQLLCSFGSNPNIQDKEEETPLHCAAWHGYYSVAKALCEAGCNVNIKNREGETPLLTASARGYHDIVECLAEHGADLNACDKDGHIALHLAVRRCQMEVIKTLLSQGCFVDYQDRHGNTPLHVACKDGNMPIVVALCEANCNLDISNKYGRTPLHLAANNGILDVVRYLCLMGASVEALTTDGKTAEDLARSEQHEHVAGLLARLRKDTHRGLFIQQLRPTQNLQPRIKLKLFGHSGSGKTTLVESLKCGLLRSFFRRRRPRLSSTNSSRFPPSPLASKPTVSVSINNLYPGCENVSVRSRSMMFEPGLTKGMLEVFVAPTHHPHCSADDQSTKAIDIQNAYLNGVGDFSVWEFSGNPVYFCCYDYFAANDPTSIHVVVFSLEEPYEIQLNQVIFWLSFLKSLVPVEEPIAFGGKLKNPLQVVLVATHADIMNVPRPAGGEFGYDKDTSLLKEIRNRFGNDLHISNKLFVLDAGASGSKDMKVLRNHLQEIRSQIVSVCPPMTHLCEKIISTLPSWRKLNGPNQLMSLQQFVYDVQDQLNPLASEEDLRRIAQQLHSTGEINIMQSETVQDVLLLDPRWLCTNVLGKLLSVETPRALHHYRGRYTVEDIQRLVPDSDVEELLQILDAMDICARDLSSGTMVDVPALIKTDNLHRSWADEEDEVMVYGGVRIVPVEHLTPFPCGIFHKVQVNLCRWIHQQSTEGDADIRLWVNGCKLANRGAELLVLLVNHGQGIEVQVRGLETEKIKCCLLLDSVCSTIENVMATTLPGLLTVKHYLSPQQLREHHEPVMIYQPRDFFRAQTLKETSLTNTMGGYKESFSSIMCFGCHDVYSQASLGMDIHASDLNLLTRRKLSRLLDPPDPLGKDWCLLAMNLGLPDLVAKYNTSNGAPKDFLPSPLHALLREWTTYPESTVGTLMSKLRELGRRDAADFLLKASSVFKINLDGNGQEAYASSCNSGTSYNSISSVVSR
Chain of p38 alpha MAPK (Q16539 whole entry): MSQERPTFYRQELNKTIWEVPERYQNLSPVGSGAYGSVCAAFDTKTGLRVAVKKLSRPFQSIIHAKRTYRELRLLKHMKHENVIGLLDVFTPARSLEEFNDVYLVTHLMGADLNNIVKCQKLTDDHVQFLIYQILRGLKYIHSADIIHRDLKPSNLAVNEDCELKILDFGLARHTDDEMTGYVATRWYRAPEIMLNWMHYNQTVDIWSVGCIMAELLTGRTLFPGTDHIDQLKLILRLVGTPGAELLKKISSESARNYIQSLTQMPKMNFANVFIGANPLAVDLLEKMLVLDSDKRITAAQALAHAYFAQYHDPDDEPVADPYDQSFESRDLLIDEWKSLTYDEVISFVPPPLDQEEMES
Chain of HIPK2 (Q9H2X6 whole entry): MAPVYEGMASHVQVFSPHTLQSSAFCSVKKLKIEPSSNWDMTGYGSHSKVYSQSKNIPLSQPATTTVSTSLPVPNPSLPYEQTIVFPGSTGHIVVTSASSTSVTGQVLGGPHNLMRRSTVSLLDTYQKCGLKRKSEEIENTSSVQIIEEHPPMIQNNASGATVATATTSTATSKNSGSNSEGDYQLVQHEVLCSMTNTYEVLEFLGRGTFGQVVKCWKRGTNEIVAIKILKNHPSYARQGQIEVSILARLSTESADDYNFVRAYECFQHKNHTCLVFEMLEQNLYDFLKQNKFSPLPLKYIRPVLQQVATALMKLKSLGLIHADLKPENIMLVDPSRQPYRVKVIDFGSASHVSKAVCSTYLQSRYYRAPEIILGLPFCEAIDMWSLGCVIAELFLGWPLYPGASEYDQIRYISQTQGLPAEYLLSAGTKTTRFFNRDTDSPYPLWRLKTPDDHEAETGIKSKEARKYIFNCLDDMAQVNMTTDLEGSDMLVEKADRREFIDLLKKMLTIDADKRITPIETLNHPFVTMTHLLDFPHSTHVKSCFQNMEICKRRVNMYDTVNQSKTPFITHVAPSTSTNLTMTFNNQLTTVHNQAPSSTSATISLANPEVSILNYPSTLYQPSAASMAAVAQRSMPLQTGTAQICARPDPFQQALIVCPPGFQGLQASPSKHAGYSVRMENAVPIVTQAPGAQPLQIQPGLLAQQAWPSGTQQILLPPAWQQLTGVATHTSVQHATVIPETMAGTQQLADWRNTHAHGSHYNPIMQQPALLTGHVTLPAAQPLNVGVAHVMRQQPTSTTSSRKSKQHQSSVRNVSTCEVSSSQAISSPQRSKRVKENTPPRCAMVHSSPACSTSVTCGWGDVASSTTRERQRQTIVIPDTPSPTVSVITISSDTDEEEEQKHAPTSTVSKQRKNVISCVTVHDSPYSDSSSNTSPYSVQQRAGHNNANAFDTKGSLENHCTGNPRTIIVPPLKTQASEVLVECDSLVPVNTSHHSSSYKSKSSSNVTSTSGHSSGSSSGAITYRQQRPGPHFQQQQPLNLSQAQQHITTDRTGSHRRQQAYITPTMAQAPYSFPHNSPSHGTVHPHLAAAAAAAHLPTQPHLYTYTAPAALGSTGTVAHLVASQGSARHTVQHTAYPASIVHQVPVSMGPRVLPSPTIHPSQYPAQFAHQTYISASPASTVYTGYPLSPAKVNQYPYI
Chain of MLK1 (P80192 whole entry): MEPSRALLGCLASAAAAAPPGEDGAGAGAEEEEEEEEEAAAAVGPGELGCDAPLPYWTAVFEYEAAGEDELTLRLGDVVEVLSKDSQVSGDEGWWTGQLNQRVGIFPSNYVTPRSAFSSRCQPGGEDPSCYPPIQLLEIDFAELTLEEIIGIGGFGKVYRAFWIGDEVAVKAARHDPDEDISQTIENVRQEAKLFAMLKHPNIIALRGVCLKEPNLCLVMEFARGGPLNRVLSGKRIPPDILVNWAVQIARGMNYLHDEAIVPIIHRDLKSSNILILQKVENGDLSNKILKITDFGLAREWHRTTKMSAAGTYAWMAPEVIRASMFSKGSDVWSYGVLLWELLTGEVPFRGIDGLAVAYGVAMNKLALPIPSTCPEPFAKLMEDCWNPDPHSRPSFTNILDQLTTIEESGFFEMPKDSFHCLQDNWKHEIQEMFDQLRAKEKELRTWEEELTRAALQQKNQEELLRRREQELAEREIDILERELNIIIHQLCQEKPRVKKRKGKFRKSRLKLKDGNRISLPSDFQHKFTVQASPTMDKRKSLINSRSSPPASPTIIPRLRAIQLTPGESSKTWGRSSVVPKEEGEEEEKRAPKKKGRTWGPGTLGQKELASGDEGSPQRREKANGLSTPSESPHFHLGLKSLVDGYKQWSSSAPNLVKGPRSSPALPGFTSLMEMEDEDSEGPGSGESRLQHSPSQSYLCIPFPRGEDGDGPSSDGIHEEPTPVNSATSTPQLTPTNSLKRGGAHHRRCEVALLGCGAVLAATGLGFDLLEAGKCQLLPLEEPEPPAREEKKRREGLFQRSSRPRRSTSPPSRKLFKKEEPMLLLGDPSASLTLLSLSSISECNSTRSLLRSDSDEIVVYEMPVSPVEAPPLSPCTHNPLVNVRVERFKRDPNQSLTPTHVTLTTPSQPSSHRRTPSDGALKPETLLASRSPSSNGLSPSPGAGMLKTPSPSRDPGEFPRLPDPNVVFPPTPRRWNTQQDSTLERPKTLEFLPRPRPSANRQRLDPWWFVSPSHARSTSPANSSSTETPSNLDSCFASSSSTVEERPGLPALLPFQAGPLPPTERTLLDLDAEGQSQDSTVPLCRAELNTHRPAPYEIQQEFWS
Chain of ERK2 (P28482 whole entry): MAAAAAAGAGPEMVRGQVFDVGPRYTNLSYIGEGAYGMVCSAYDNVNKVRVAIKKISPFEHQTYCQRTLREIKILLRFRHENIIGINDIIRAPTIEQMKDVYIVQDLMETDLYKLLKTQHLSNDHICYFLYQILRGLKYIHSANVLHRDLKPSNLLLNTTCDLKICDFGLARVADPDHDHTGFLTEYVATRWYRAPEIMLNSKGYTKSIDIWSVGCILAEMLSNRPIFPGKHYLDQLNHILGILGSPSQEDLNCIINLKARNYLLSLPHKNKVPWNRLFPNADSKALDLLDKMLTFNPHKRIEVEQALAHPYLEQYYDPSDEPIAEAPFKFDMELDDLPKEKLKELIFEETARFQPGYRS

| SMILES | remaining activity at 1 µM (DAPK1) | remaining activity at 1 µM (EF2K) | remaining activity at 1 µM (EPH-B2) | remaining activity at 1 µM (ERK2) | remaining activity at 1 µM (HIPK2) | remaining activity at 1 µM (MLK1) | remaining activity at 1 µM (PDK1) | remaining activity at 1 µM (RSK2) | remaining activity at 1 µM (p38 alpha MAPK) | remaining activity at 1 µM (DAPK1; 1 µM) | remaining activity at 1 µM (EF2K; 1 µM) | remaining activity at 1 µM (EPH-B2; 1 µM) | remaining activity at 1 µM (ERK2; 1 µM) | remaining activity at 1 µM (HIPK2; 1 µM) | remaining activity at 1 µM (MLK1; 1 µM) | remaining activity at 1 µM (PDK1; 1 µM) | remaining activity at 1 µM (RSK2; 1 µM) | remaining activity at 1 µM (p38 alpha MAPK; 1 µM) |
| --- | --- | --- | --- | --- | --- | --- | --- | --- | --- | --- | --- | --- | --- | --- | --- | --- | --- | --- |
| COc1ccc(Cl)c(S(=O)(=O)Nc2ccc(-c3nc(OC[C@H]4CNCCO4)c4c(C)n[nH]c4n3)cc2)c1 [290-R, reference compound] | 87% | 112% | 120% | 109% | 50% | 9% | 117% | 24% | 111% | – | – | – | – | – | – | – | – | – |
| Cc1ccc(F)c(S(=O)(=O)Nc2ccc(-c3nc(OC[C@H]4CNCCO4)c4cn[nH]c4n3)cc2)c1 [308-R, reference compound] | 91% | 128% | 56% | 110% | 47% | 16% | 88% | 24% | 88% | – | – | – | – | – | – | – | – | – |
| Cc1ccc(F)c(S(=O)(=O)Nc2ccc(-c3nc(OC[C@H]4CN(CCCCCCOCCOCCOCC(=O)N[C@H](C(=O)N5C[C@H](O)C[C@H]5C(=O)NCc5ccc(-c6scnc6C)cc5)C(C)(C)C)CCO4)c4cn[nH]c4n3)cc2)c1 [SGK3-PROTAC1] | – | – | – | – | – | – | – | – | – | 100% | 98% | 94% | 104% | 109% | 82% | 99% | 120% | 125% |
| Cc1ccc(F)c(S(=O)(=O)Nc2ccc(-c3nc(OC[C@H]4CN(CCCCCCOCCOCCOCC(=O)N[C@H](C(=O)N5C[C@@H](O)C[C@H]5C(=O)NCc5ccc(-c6scnc6C)cc5)C(C)(C)C)CCO4)c4cn[nH]c4n3)cc2)c1 [cisSGK3-PROTAC1] | – | – | – | – | – | – | – | – | – | 108% | 105% | 97% | 95% | 100% | 94% | 87% | 109% | 109% |
